{"source": "patent US20050049232A1", "about": "“Composition” (priority 2001, published 2005)", "origin": "cited, not measured here", "tested_on": "androgenic alopecia patients", "details": "topical solutions, alone or in combination with skin penetration enhancers such as DMSO"}
{"smiles": "Nc1cc(N2CCCCC2)nc(N)[n+]1[O-]", "note": "[minoxidil, 2,4-diamino-6-piperidino-pyrimidine-3-oxide]", "values": [{"measurement": "patients with moderate to dense regrowth of hair", "value": "less than 40%"}]}
